Reference: article PMC7884692, “Arginine glycosylation enhances methylglyoxal detoxification” (Scientific Reports, 2021)

Target: T1, GloA (Salmonella enterica, UniProt P0A1Q2)
T1 construct: full length, His-tag (modified pET28a, tac promoter), E. coli BL21(DE3); unglycosylated form
T1 sequence (P0A1Q2 1-135): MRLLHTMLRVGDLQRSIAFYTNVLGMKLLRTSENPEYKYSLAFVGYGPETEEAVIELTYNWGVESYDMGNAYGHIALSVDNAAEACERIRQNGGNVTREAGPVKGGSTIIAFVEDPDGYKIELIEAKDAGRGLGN
Test: S-lactoylglutathione production at OD240
Assay type: biochemical
Conditions: unglycosylated GloA 50 nM; hemithioacetal from 5 mM glutathione + 5 mM methylglyoxal; 100 mM NaH2PO4 pH 7.0

## C[C@@H](O)C(=O)SC[C@H](NC(=O)CC[C@H](N)C(=O)O)C(=O)NCC(=O)O [S-lactoylglutathione]
  S-lactoylglutathione production at OD240: both hemithioacetal consumption and S-lactoylglutathione production was measured as a function of time
